Calls of active or inactive are those of the source. The calls are words filed in the database; no cut-off is given here.
What was measured:
[1] = molecular target: Heat shock protein beta-1 (Homo sapiens) (UniProt P04792); assay: Induction of abnormal recombinant HSP27 (unknown origin) dimerization after 3 hrs by Western blot analysis
[2] = molecular target: Heat shock protein beta-1 (Homo sapiens) (UniProt P04792); assay: Induction of abnormal HSP27 dimerization in human NCI-H460 cells assessed as potentiation of 17-AAG-induced increase in cleaved PARP levels at 10 uM after 24 hrs by Western blot analysis; type: cell-based
[3] = molecular target: Heat shock protein beta-1 (Homo sapiens) (UniProt P04792); assay: Induction of abnormal HSP27 dimerization in human NCI-H460 cells assessed as potentiation of 17-AAG-induced increase in cleaved caspase-7 levels at 10 uM after 24 hrs by Western blot analysis; type: cell-based
[4] = system: NCI-H460; assay: Induction of apoptosis in human NCI-H460 cells assessed as necrotic cells at 10 uM after 24 hrs by Annexin V/propidium iodide double staining-based FACS analysis (reference value: 1.29%); type: functional
[5] = system: NCI-H460; assay: Induction of apoptosis in human NCI-H460 cells assessed as late apoptotic cells at 10 uM after 24 hrs by Annexin V/propidium iodide double staining-based FACS analysis (reference value: 3.66%); type: functional
[6] = system: NCI-H460; assay: Induction of apoptosis in human NCI-H460 cells assessed as early apoptotic cells at 10 uM after 24 hrs by Annexin V/propidium iodide double staining-based FACS analysis (reference value: 3.84%); type: functional
[7] = system: NCI-H460; assay: Potentiation of 17-AAG-induced apoptosis in human NCI-H460 cells assessed as late apoptotic cells at 10 uM after 24 hrs by Annexin V/propidium iodide double staining-based FACS analysis (reference value: 7.53%); type: functional
[8] = system: NCI-H460; assay: Potentiation of 17-AAG-induced apoptosis in human NCI-H460 cells assessed as early apoptotic cells at 10 uM after 24 hrs by Annexin V/propidium iodide double staining-based FACS analysis (reference value: 17.86%); type: functional
[9] = system: NCI-H460; assay: Potentiation of 17-AAG-induced apoptosis in human NCI-H460 cells assessed as necrotic cells at 10 uM after 24 hrs by Annexin V/propidium iodide double staining-based FACS analysis (reference value: 1.42%); type: functional
[10] = system: NCI-H460; assay: Potentiation of 17-AAG-induced antiproliferative activity in HSP27-knockdown human NCI-H460 cells at 10 uM after 24 hrs by EZ-CYTOX cell viability assay; type: functional, cell-based
[11] = system: NCI-H460; assay: Induction of apoptosis in human NCI-H460 cells assessed as late apoptotic cells at 10 uM after 24 hrs by Annexin V/propidium iodide double staining-based FACS analysis (reference value: 3.92%); type: functional
[12] = system: NCI-H460; assay: Induction of apoptosis in human NCI-H460 cells assessed as early apoptotic cells at 10 uM after 24 hrs by Annexin V/propidium iodide double staining-based FACS analysis (reference value: 2.83%); type: functional
[13] = system: NCI-H460; assay: Induction of apoptosis in human NCI-H460 cells assessed as necrotic cells at 10 uM after 24 hrs by Annexin V/propidium iodide double staining-based FACS analysis (reference value: 2.92%); type: functional
[14] = system: NCI-H460; assay: Potentiation of cisplatin-induced apoptosis in human NCI-H460 cells assessed as late apoptotic cells at 10 uM after 24 hrs by Annexin V/propidium iodide double staining-based FACS analysis (reference value: 3.74%); type: functional
[15] = system: NCI-H460; assay: Potentiation of cisplatin-induced apoptosis in human NCI-H460 cells assessed as early apoptotic cells at 10 uM after 24 hrs by Annexin V/propidium iodide double staining-based FACS analysis (reference value: 7.49%); type: functional
[16] = system: NCI-H460; assay: Potentiation of cisplatin-induced apoptosis in human NCI-H460 cells assessed as necrotic cells at 10 uM after 24 hrs by Annexin V/propidium iodide double staining-based FACS analysis (reference value: 2.26%); type: functional
[17] = molecular target: Heat shock protein beta-1 (Homo sapiens) (UniProt P04792); assay: Induction of abnormal HSP27 dimerization in human NCI-H460 cells at 10 uM co-treated with 17-AAG after 24 hrs by Western blot analysis; type: cell-based
[18] = molecular target: Heat shock protein beta-1 (Homo sapiens) (UniProt P04792); assay: Induction of abnormal HSP27 dimerization in human NCI-H460 cells at 10 uM after 12 hrs by Western blot analysis; type: cell-based
[19] = system: NCI-H460; assay: Induction of apoptosis in human NCI-H460 cells assessed as increase in cleaved PARP levels at 10 uM after 12 hrs by Western blot analysis; type: functional, cell-based
[20] = system: NCI-H460; assay: Induction of apoptosis in human NCI-H460 cells assessed as increase in cleaved caspase-7 levels at 10 uM after 12 hrs by Western blot analysis; type: functional, cell-based
[21] = system: NCI-H460; assay: Potentiation of 17-AAG-induced antiproliferative activity against human NCI-H460 cells at 10 uM after 24 hrs by EZ-CYTOX cell viability assay; type: functional, cell-based
[22] = molecular target: Heat shock protein beta-1 (Homo sapiens) (UniProt P04792); assay: Induction of abnormal HSP27 dimerization in human NCI-H460 cells assessed as potentiation of 17-AAG-induced antiproliferative activity at 10 uM after 24 hrs by EZ-CYTOX cell viability assay; type: cell-based
[23] = molecular target: Heat shock protein beta-1 (Homo sapiens) (UniProt P04792); assay: Induction of abnormal HSP27 dimerization in human NCI-H460 cells assessed as potentiation of 17-AAG-induced apoptosis by measuring late apoptotic cells at 10 uM after 24 hrs by Annexin V/propidium iodide double staining-based FACS analysis (reference value: 7.53%); type: cell-based
[24] = molecular target: Heat shock protein beta-1 (Homo sapiens) (UniProt P04792); assay: Induction of abnormal HSP27 dimerization in human NCI-H460 cells assessed as potentiation of cisplatin-induced antiproliferative activity at 10 uM after 24 hrs by EZ-CYTOX cell viability assay; type: cell-based
[25] = molecular target: Heat shock protein beta-1 (Homo sapiens) (UniProt P04792); assay: Induction of abnormal HSP27 dimerization in human NCI-H460 cells assessed as potentiation of cisplatin-induced increase in cleaved PARP levels at 10 uM after 24 hrs by Western blot analysis; type: cell-based
[26] = molecular target: Heat shock protein beta-1 (Homo sapiens) (UniProt P04792); assay: Induction of abnormal HSP27 dimerization in human NCI-H460 cells assessed as potentiation of cisplatin-induced increase in cleaved caspase-7 levels at 10 uM after 24 hrs by Western blot analysis; type: cell-based
[27] = molecular target: Heat shock protein beta-1 (Homo sapiens) (UniProt P04792); assay: Induction of abnormal HSP27 dimerization in human NCI-H460 cells assessed as potentiation of cisplatin-induced apoptosis by measuring late apoptotic cells at 10 uM after 24 hrs by Annexin V/propidium iodide double staining-based FACS analysis (reference value: 3.74%); type: cell-based
[28] = molecular target: Heat shock protein beta-1 (Homo sapiens) (UniProt P04792); assay: Induction of abnormal HSP27 dimerization in human NCI-H460 cells assessed as potentiation of cisplatin-induced apoptosis by measuring early apoptotic cells at 10 uM after 24 hrs by Annexin V/propidium iodide double staining-based FACS analysis (reference value: 7.49%); type: cell-based
[29] = molecular target: Heat shock protein beta-1 (Homo sapiens) (UniProt P04792); assay: Induction of abnormal HSP27 dimerization in human NCI-H460 cells assessed as potentiation of cisplatin-induced apoptosis by measuring necrotic cells at 10 uM after 24 hrs by Annexin V/propidium iodide double staining-based FACS analysis (reference value: 2.26%); type: cell-based
[30] = molecular target: Heat shock protein beta-1 (Homo sapiens) (UniProt P04792); assay: Induction of abnormal HSP27 dimerization in human NCI-H460 cells assessed as potentiation of 17-AAG-induced apoptosis by measuring early apoptotic cells at 10 uM after 24 hrs by Annexin V/propidium iodide double staining-based FACS analysis (reference value: 17.86%); type: cell-based
[31] = molecular target: Heat shock protein beta-1 (Homo sapiens) (UniProt P04792); assay: Induction of abnormal HSP27 dimerization in human NCI-H460 cells assessed as potentiation of 17-AAG-induced apoptosis by measuring necrotic cells at 10 uM after 24 hrs by Annexin V/propidium iodide double staining-based FACS analysis (reference value: 1.42%); type: cell-based

Chain of Heat shock protein beta-1 (Homo sapiens) (P04792 whole entry): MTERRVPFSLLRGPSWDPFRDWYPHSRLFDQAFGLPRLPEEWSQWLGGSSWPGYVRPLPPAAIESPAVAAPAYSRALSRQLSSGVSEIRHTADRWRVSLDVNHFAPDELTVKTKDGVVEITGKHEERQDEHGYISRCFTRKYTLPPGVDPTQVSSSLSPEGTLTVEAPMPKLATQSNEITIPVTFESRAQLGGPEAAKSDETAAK

SMILES | Activity [1] | Activity [2] | Activity [3] | Activity [4] | Activity [5] | Activity [6] | Activity [7] | Activity [8] | Activity [9] | Activity [10] | Activity [11] | Activity [12] | Activity [13] | Activity [17] | Activity [18] | Activity [19] | Activity [20] | other results
COc1cc(OCC2CS2)c2c(=O)c3ccccc3oc2c1 (configuration not stated) | inactive | inactive | inactive | 0.6% | 4.04% | 3.42% | 6.65% | 6.62% | 0.68% | inactive | 4.27% | 3.41% | 3.6% |  |  |  |  | Activity [14]: 4.81%; Activity [15]: 7.29%; Activity [16]: 2.45%
O=c1cc(-c2ccccc2)oc2cc(OCC3CS3)cc(OCC3CS3)c12 (configuration not stated) | Active | Active | Active | 11.71% | 27.48% | 9.85% | 31.53% | 10.78% | 10.12% | Active |  |  |  | Active | Active | Active | Active | Activity [21]: Active
Cc1cc(=O)c2c(OCC3CS3)cc(OCC3CS3)cc2o1 (configuration not stated) | Active | Active | Active | 2.37% | 4.5% | 3.49% |  |  |  | inactive | 3.53% | 6.25% | 2.67% | Active | Active | Active | Active | Activity [22]: Active; Activity [23]: 13%; Activity [24]: Active; Activity [25]: Active; Activity [26]: Active; Activity [27]: 6.44%; Activity [28]: 11.1%; Activity [29]: 2.91%; Activity [30]: 18%; Activity [31]: 5.37%
O=c1cc(-c2ccccc2)oc2cc(OCC3CO3)cc(OCC3CO3)c12 (configuration not stated) | Active |  |  |  |  |  |  |  |  |  |  |  |  |  |  |  |  | 
O=c1c2ccccc2oc2cc(OCC3CS3)cc(OCC3CS3)c12 (configuration not stated) | Active | Active | Active | 3.38% | 8.13% | 8.67% | 20.69% | 21.99% | 5.18% | Active |  |  |  | Active | Active | Active | Active | Activity [21]: Active
O=c1cc(-c2ccccc2)oc2cc(OCC3CS3)cc(O)c12 (configuration not stated) | Active |  |  |  |  |  |  |  |  |  |  |  |  |  |  |  |  | 
O=c1cc(-c2ccccc2)oc2cc(OCC3CO3)cc(O)c12 (configuration not stated) | inactive |  |  |  |  |  |  |  |  |  |  |  |  |  |  |  |  | 
Cc1cc(=O)c2c(O)cc(OCC3CS3)cc2o1 (configuration not stated) | Active | Active | Active | 1.97% | 5.9% | 3.47% |  |  |  | inactive | 5.21% | 4.73% | 1.89% | Active | Active | Active | Active | Activity [22]: Active; Activity [23]: 16.5%; Activity [24]: Active; Activity [25]: Active; Activity [26]: Active; Activity [27]: 4.52%; Activity [28]: 9.47%; Activity [29]: 2.11%; Activity [30]: 18.6%; Activity [31]: 3.87%
